# Assay results: patent publication US10517862B2, “Fused heterocyclic compound derivative and application thereof” (NHWA PHARMA. CORPORATION, priority 2015, dated 2019)
# Like-named read-outs stand apart in the source and are kept apart here.
# What was measured:
# mice of Kunming breed [1] = assay: MK-801 induced high activity in mice; type: in vivo; settings: Mus musculus, 1.5 h, po, MK-801 0.1 mg/kg ip, spontaneous activities in 90 min
# Description: Example 54: MK-801 Induced High Activity—the In Vivo Anti-Schizophrenia Activity of the Compounds
# Healthy mice of Kunming breed (with half male and half female, (20±2) g) were provided by Qinglongshan Animal Cultivation Center, Nanjing.
# Ascorbic acid was provided by Sinopharm Chemical Reagent Co. Ltd.
# MK-801 was produced by Sigma Company, USA; the formulation method: 0.1% vitamin C was used to formulate a 1 mg/ml solution.
# Test positive drugs: haloperidol, clozapine, risperidone, olanzapine, aripiprazole, ziprasidone, quetiapine.
# Tween 80, with the concentration of 10%.
# Mice with qualified body weight were selected, and randomly divided into blank group, model group, positive control group (risperidone group) and drug group. […] 1 h after the administration, 0.1% concentration of ascorbic acid was intraperitoneally injected to the blank group at 0.1 ml/10 g; and the model group, the positive control group (30 min) and the drug group were intraperitoneally injected the MK-801 solution at 0.1 mg/kg. Subsequently, the spontaneous activities of the mice of each group in 90 min were measured.
# mice of Kunming breed [2] = assay: Apomorphine induced clambering assay of mice; type: in vivo; settings: for ED50: Mus musculus, read-out: Apomorphine induced clambering (ED50, po, mg/kg)
# Description: Healthy mice of Kunming breed (KM) (male, with body weight of 18-22 g) were provided by Qinglongshan Animal Cultivation Center, Nanjing.
# Apomorphine provided by Sigma Company was dissolved in 0.9% NaCl (containing 0.1% vitamin C) before use, and was freshly formulated before use.
# Vitamin C, F20061113, was provided by Sinopharm Chemical Reagent Co. Ltd.
# Sodium chloride injection, H32026305, was provided by Xuzhou No. 5 Pharmaceutical Factory Co. Ltd.
# Instruments: self-made clambering cage, chronograph.
# Procedures: apomorphine induced clambering assay of mice
# After 5 min of adaptation, the behavior of the mice at 10-11, 20-21, and 30-31 min after the injection of apomorphine were observed and scored. Scoring criteria: the behavior of 4 paws on the floor was scored as 0; the behavior of 2 forepaws on the cage was scored as 1; and the behavior of 4 paws on the cage was scored as 2.
# KM mice = assay: in vivo
# D2 receptor = D2 receptor binding assay (3H-Spiperone, rat striatum membrane); settings: test compound final concentration 10^−5 M; 3H-Spiperone; rat striatum membrane
# Description: Preparation of D2 Membrane
# Rats were decapitated on ice. […] The weight of the homogenized tubes were adjusted using a balance, and centrifugation was conducted. […] Centrifugation was conducted.
# (§1) Materials for the Receptor Binding Assay
# 5HT1A receptor = biological target: T1, 5HT1A receptor (Rattus norvegicus, UniProt P19327); assay: 5HT1A receptor binding assay (3H-8-OH-DPAT, rat striatum membrane); settings: test compound final concentration 10^−5 M; 3H-8-OH-DPAT; rat striatum membrane; read-out: 5HT1A Inhibition rate (%)
# T1 construct: Rats were decapitated on ice; from tissue; host or cells: rat brain striatum
# T1 sequence (P19327 1-422): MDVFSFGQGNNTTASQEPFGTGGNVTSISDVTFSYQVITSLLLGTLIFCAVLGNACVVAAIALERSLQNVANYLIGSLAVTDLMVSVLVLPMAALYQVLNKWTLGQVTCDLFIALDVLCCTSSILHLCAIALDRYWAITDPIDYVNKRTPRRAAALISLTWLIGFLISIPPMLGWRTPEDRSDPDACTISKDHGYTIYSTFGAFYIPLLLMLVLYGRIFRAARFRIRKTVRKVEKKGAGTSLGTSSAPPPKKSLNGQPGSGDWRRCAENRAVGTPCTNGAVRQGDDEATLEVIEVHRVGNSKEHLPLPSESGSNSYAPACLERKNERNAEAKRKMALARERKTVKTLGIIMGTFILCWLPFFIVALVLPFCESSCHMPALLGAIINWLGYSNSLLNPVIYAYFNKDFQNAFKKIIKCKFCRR
# Description: Preparation of 5HT1A Membrane
# Rats were decapitated on ice. […] Incubation at 37° C. was conducted for 10 min. […] Centrifugation was conducted at 12000 rpm, 4° C. for 20 min. […] Centrifugation was conducted and repeated 3 times.
# as §1
# D3 receptor = biological target: T2, D3 receptor (Homo sapiens, UniProt P35462); assay: D3 receptor assay ([3H]-Spiperone, HEK-293 cells); type: binding; settings: test compound final concentration 10 μmol/L; [3H]-Spiperone; HEK-293 cells; read-out: D3 Inhibition rate (%)
# T2 construct: expressed in transfected cells; host or cells: HEK-293
# Description: Then the cells were centrifuged at 1000 rpm for 5 min, the supernatant was discarded, and the cell pellets was collected and stored in a −20° C. fridge for reservation. It was re-suspended with Tris-Cl (pH 7.4) when the assay was performed.
# Tris was divided into aliquots by Genetimes Technology Inc.
# Competitive binding test for receptors: 20 μl of each of the test compounds and 20 μl of the radioactive ligand together with 160 μl of the receptor proteins were added into the reaction tubes, and the final concentrations of the test compound and the positive drug were all 10 μmol/L. After 50 min of incubation in 30° C. water bath, the tubes were immediately moved to ice bath to terminate the reactions. GF/C glass fiber filter papers were used for rapid sucking filtration on a Millipore cell sample collector, 3 ml of elution buffer (50 mM Tris-HCl, PH 7.4) was applied for 3 times, and microwave was applied for 4-5 min for drying. The filter paper was moved into 0.5 ml centrifuge tube, and 500 μl of liposoluble scintillation cocktail was added. The tubes were allowed to stand still for over 30 min in dark, and the intensities of radioactivity were measured by a counter.
# 5HT2C receptor = biological target: T3, 5HT2C receptor (Rattus norvegicus, UniProt P08909); assay: 5HT2C receptor binding assay ([3H]-mesulergine, rat striatum membrane); settings: test compound final concentration 10^−5 M; [3H]-mesulergine; rat striatum membrane; read-out: 5HT2C Inhibition rate (%)
# T3 construct: from tissue; host or cells: rat brain striatum
# T3 sequence (P08909 33-460): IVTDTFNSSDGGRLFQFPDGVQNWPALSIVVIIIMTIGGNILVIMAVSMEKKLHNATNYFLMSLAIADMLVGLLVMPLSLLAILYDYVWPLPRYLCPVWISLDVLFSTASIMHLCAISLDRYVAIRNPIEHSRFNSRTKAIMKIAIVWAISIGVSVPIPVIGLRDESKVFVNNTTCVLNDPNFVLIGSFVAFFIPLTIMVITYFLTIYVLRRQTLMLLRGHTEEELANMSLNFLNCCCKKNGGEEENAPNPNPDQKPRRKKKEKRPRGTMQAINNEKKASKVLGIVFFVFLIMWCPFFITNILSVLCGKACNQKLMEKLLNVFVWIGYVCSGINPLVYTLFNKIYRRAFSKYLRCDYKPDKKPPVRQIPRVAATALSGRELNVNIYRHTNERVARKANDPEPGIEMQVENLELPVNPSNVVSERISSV
# Description: Preparation of 5HT2C Membrane
# Rats were decapitated on ice. […] Centrifugation was conducted.
# as §1
# [3] = test system: α1 norepinephrine receptor; assay: α1 norepinephrine receptor binding assay (3H-prazosin, rat cortex membrane); settings: test compound final concentration 10^−5 M; 3H-prazosin; rat cortex membrane
# Excerpt: Preparation of Receptor Membrane of Norepinephrine
# α1 Norepinephrine Receptor Binding Assay
# Catalepsy assay in mice = settings: both sexes, Kunming, mouse, in vivo, po, bar test at 30, 60, 90 min
# Description: Healthy mice of Kunming breed (with half male and half female, (22±2) g) were provided by Qinglongshan Animal Cultivation Center, Nanjing.
# Instruments: self-made bar-grabbing apparatus: stainless steel bar in mice box, which was 0.3 cm in diameter and […].
# Corresponding solvent double-distilled water was administered intragastrically to the negative control group and the model group, corresponding positive drugs were administered intragastrically to the positive drug groups (a small amount of acetic acid was first added and then double-distilled water was added when dissolving), and corresponding dosages of compounds were administered intragastrically to the compound groups for each dosage, with the volume for intragastric administration as 0.1 ml/10 g. At 30 min, 60 min, 90 min after the intragastric administration, the two forepaws of the mice were gently placed on the bars (which were 20 cm in length, 0.3 cm in diameter, and 5.5 cm above the bench), and the hindpaws of the animals were placed on the bottom of the box. The durations of the mice to maintain the posture with the two forepaws on the bars were recorded, and 30 s of spasticity without moving was considered as the positive response. In the case the forepaws of the mice were not put down persistently, the observation was terminated at 60 s. The numbers of animals with positive response in each of the compound dosage groups were counted.
# in vivo = settings: both sexes, mouse, in vivo, po
# 5HT2A receptor = 5HT2A receptor (Rattus norvegicus, UniProt P14842); assay: 5HT2A receptor binding assay ([3H]-Ketanserin, rat striatum membrane); settings: read-out: 5HT2A Inhibition rate (%)
# Histamine H1 receptor = Histamine H1 receptor (Rattus norvegicus, UniProt P31390); assay: Histamine H1 receptor binding assay (3H-pyrilamine, rat cerebellum membrane); settings: read-out: H1 Inhibition rate (%)
# Description: The supernatant was discarded to give pellets, and homogenate F was added again to the pellets for washing. Centrifugation was conducted and repeated 3 times.
# (2) 100 μL of membrane preparation was added into each reaction tube.
# [4] = mice, po, apomorphine 1 mg/kg sc 1 hour after administration
# [5] = single intragastric administration in mice
# [6] = single intragastric administration in mice, read-out: LD50 (po, mg/kg)
# [7] = both, KM, mouse, in vivo, po, 7 days
# Chain of 5HT2A receptor (P14842 whole entry): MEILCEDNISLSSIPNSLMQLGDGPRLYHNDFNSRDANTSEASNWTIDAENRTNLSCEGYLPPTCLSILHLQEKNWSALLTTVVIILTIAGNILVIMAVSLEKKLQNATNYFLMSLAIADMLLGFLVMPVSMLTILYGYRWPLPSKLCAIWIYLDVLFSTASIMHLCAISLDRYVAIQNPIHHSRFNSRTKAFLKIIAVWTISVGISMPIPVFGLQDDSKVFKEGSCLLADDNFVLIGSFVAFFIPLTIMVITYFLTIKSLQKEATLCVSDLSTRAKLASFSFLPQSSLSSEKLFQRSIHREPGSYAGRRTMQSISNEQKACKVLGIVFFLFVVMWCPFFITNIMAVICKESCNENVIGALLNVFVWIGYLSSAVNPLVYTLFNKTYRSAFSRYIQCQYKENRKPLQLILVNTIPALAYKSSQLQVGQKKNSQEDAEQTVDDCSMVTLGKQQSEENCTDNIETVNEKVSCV
# Chain of Histamine H1 receptor (P31390 whole entry): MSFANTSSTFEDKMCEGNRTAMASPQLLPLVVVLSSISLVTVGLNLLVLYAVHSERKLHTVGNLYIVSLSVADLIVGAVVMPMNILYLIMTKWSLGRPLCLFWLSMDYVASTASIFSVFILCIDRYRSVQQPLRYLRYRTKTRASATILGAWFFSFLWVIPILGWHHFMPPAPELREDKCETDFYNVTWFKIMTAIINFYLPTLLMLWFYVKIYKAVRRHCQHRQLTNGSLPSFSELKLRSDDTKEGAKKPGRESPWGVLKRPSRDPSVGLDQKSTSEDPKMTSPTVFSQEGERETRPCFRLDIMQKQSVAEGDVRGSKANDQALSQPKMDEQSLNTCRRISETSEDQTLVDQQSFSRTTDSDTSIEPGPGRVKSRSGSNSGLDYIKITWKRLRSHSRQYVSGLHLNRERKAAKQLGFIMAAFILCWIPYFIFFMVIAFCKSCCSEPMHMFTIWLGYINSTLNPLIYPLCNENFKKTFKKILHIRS
# T2 sequence (P35462 whole entry): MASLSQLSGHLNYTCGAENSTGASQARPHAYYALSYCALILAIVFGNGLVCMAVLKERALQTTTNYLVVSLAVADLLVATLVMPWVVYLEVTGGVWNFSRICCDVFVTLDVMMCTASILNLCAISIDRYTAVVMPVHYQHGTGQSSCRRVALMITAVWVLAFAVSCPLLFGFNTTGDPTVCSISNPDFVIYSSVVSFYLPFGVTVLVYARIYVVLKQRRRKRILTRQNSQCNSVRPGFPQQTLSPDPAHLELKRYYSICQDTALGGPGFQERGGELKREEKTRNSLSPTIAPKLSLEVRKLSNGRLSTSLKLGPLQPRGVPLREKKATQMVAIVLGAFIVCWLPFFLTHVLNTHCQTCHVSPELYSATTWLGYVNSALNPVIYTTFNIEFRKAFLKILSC
Structure (SMILES),ED50 (mice of Kunming breed [1]) [mg/kg],ED50 (mice of Kunming breed [2]; [4]) [mg/kg],D2 Inhibition rate (%) (D2 receptor),inhibition at 10 µM (5HT1A receptor) [%],inhibition at 10 µM (D3 receptor) [%],inhibition at 10 µM (5HT2C receptor) [%],α1 Inhibition rate (%) [3] [%],inhibition at 10 µM (5HT2A receptor) [%],inhibition at 10 µM (Histamine H1 receptor) [%],also measured
CN1CCN(C2=Nc3cc(Cl)ccc3Nc3ccccc32)CC1 [clozapine],2.28,17.9,–,–,–,–,–,–,–,"LD50 (po, mg/kg) (KM mice; [5]): 150 mg/kg"
Cc1cc2c(s1)Nc1ccccc1N=C2N1CCN(C)CC1 [olanzapine],–,–,–,–,–,–,–,–,–,ED50 (mice of Kunming breed [2]; 1 h): 0.11 mg/kg
Cc1nc2n(c(=O)c1CCN1CCC(c3noc4cc(F)ccc34)CC1)CCCC2 [risperidone],–,–,–,–,–,–,–,–,–,"ED50 (mice of Kunming breed [2]; 1 h): 0.015 mg/kg; effect on apomorphine induced clambering symptoms (in words) (mice of Kunming breed [2]; compared with the model group, mice): effectively improve"
O=C(CCN1CCC(c2noc3cc(F)ccc23)CC1)c1cc2c3c(c1)CCC(=O)N3CCC2 [Compound 2],0.2,0.11,94.33,93.9,74.9,63.9,68.75,97.9,47.9,ED50 (Catalepsy assay in mice): 3.8 mg/kg; LD50 at 7 days (in vivo; [6]): > 2000 mg/kg
O=C(CCCN1CCC(O)(c2ccc(Cl)cc2)CC1)c1ccc(F)cc1 [haloperidol],7.42,0.1,–,–,–,–,–,–,–,"LD50 (po, mg/kg) (KM mice; [5]): 20 mg/kg"
OCCOCCN1CCN(C2=Nc3ccccc3Sc3ccccc32)CC1 [quetiapine],10.1,2.02,–,–,–,–,–,–,–,"LD50 (po, mg/kg) (KM mice; [7]): 800 mg/kg"
O=C1CCc2ccc(OCCCCN3CCN(c4cccc(Cl)c4Cl)CC3)cc2N1 [aripiprazole],0.12,0.66,–,–,–,–,–,–,–,"LD50 (po, mg/kg) (KM mice; [7]): 93 mg/kg"
O=C1Cc2cc(CCN3CCN(c4nsc5ccccc45)CC3)c(Cl)cc2N1 [ziprasidone],0.56,0.37,–,–,–,–,–,–,–,LD50 at 7 days (in vivo; [6]): > 2000 mg/kg
O=C(CCCN1CCC(c2noc3cc(F)ccc23)CC1)c1cc2c3c(c1)CCN3C(=O)CC2 [Compound 15],0.21,0.12,103.83,103,99.9,52.7,43.69,104,34,ED50 (Catalepsy assay in mice): 50 mg/kg; LD50 at 7 days (in vivo; KM): > 2000 mg/kg
O=C1CCc2cc(C(O)CCCCN3CCC(c4noc5cc(F)ccc45)CC3)cc3c2N1CC3 (centres unmarked) [Compound 19],–,–,81.45,87.1,91.5,57.1,52.47,81.1,41.1,–
O=C(CCCN1CCC(c2noc3cc(F)ccc23)CC1)c1cc2c3c(c1F)CCN3C(=O)CC2 [Compound 21],–,–,92.01,93.3,90.1,67.9,46.78,91.1,54.3,–
O=C1CCc2cc(CCCCN3CCC(c4noc5cc(F)ccc45)CC3)cc3c2N1CCC3 [Compound 7],0.92,0.44,94.32,99.2,98.1,62.2,63.69,99.4,46.4,ED50 (Catalepsy assay in mice): 24.1 mg/kg; LD50 at 7 days (in vivo; [6]): > 2000 mg/kg
